Experimental data published in patent US8846570B2, “Herbicidal compositions comprising 4-amino-3-chloro-5-fluoro-6-(4-chloro-2-fluoro-3-methoxyphenyl)pyridine-2-carboxylic acid or a derivative thereof and microtubule inhibiting herbicides” (Dow AgroSciences LLC, priority 2012, dated 2014).
Read-outs that look alike come from different tables or passages of the source.

Columns and labels:
Assay type in all cases: in vivo
[1] = system: Ipomoea hederacea Jacq. (IPOHE); assay: Postemergence foliar-applied, direct seeded rice, greenhouse: visual weed control; settings: post-emergence, read-out: Visual Weed Control (%) Obs
Experimental: Seeds or nutlets of the desired test plant species were planted in a soil matrix prepared by mixing a loam or sandy loam soil (e.g., 28.6 percent silt, 18.8 percent clay, and 52.6 percent sand, with a pH of about 5.8 and an organic matter content of about 1.8 percent) and calcareous grit in an 80 to 20 ratio. The soil matrix was contained in plastic pots with a volume of 1 quart and a surface area of 83.6 cm^2. […] The plants were grown for 8-22 days in a greenhouse with an approximate 14 h photoperiod which was maintained at about 29° C. during the day and 26° C. during the night. Nutrients (Peters Excel® 15-5-15 5-Ca 2-Mg and iron chelate) were applied in the irrigation solution as needed and water was added on a regular basis. Supplemental lighting was provided with overhead metal halide 1000-Watt lamps as necessary. The plants were employed for testing when they reached the first through fourth true leaf stage.
(§1) Forms of compound A were applied on an acid equivalent basis.
(§2) For treatments comprised of formulated compounds, measured amounts of compounds were placed individually in 25 mL glass vials and diluted in a volume of 1.25% (v/v) Agri-Dex® crop oil concentrated to obtain 12× stock solutions. […] Application solutions were prepared by adding an appropriate amount of each stock solution (e.g., 1 mL) and diluted to the appropriate final concentrations with the addition of 10 mL of an aqueous mixture of 1.25% (v/v) crop oil concentrate so that the final spray solutions contained 1.25+/−0.05% (v/v) crop oil concentrate.
As required, additional water and/or 97:3 v/v acetone/DMSO was added to individual application solutions so that the final acetone and DMSO concentrations of the application solutions being compared were 8.1% and 0.25%, respectively.
(§3) All stock solutions and applications solutions were visually inspected for compound compatibility prior to application. Spray solutions were applied to the plant material with an overhead Mandel track sprayer equipped with a 8002E nozzles calibrated to deliver 187 L/ha over an application area of 0.503 m^2 at a spray height of 18 to 20 inches (46 to 50 cm) above average plant canopy height. Control plants were sprayed in the same manner with the solvent blank.
The treated plants and control plants were placed in a greenhouse as described above and watered by sub-irrigation to prevent wash-off of the test compounds. After approximately 3 weeks, the condition of the test plants as compared with that of the untreated plants was determined visually and scored on a scale of 0 to 100 percent where 0 corresponds to no injury or growth inhibition and 100 corresponds to complete kill.
(§4) Colby's equation was used to determine the herbicidal effects expected from the mixtures (Colby, S. R. 1967. Calculation of the synergistic and antagonistic response of herbicide combinations. Weeds 15:20-22.).
(§5) The following equation was used to calculate the expected activity of mixtures containing two active ingredients, A and B: Expected=A+B−(A×B/100)

[2] = system: Ipomoea hederacea (L.) Jacq. (IPOHE); assay: Pre-emergence soil-applied, greenhouse: visual weed control; settings: Propyzamide 1120 g ai/ha alone; soil-applied pre-emergence; 33 DAA
Source text: (§6) Seeds or nutlets of the desired test plant species were planted in a soil matrix prepared by mixing a loam soil (e.g., 32 percent silt, 23 percent clay, and 45 percent sand, with a pH of about 6.5 and an organic matter content of about 1.9 percent) and calcareous grit in an 80 to 20 ratio. The soil matrix was contained in plastic pots with a volume of 1 quart and a surface area of 83.6 square centimeters (cm^2).
as §1
as §2, with “oil concentrate (COC)” for “oil concentrated”, “(v/v) COC” for “(v/v) crop oil concentrate”, “contained 1.25%” for “contained 1.25+/−0.05%”, “(v/v) COC.” for “(v/v) crop oil concentrate.”
(§7) For treatments comprised of formulated and technical compounds, weighed amounts of the technical materials were placed individually in 25 mL glass vials and dissolved in a volume of 97:3 (v/v) acetone/DMSO to obtain 12× stock solutions, and measured amounts of the formulated compounds were placed individually in 25 mL glass vials and diluted in a volume of 1.5% (v/v) COC or water to obtain 12× stock solutions. […] Application solutions were prepared by adding an appropriate amount of each stock solution (e.g., 1 mL) and diluted to the appropriate final concentrations with the addition of an appropriate amount of an aqueous mixture of 1.5% (v/v) COC so that the final spray solutions contained 1.25% (v/v) COC. As required, additional water and/or 97:3 (v/v) acetone/DMSO was added to individual application solutions so that the final acetone and DMSO concentrations of the application solutions being compared were 8.1% and 0.25%, respectively.
as §3, with “soil” for “plant material”, “18” for “18 to 20”, “(46” for “(46 to 50”, “pot” for “plant canopy”, “pots” for “plants”
The treated and control pots were placed in a greenhouse and top watered as needed. […] The pots were maintained in a greenhouse with an approximate 14 hr photoperiod which was maintained at about 29° C. during the day and 26° C. during the night. Nutrients (Peters® Excel 15-5-15 5-Ca 2-Mg) were applied in the irrigation solution as needed and water was added on a regular basis. Supplemental lighting was provided with overhead metal halide 1000-Watt lamps as necessary. After approximately 4 weeks, the condition of the test plants as compared with that of the untreated plants was determined visually and scored on a scale of 0 to 100 percent where 0 corresponds to no injury or growth inhibition and 100 corresponds to complete kill.
as §4, §5

[3] = system: Brachiaria platyphylla (Groseb.) Nash or Urochloa platyphylla (Nash) R.D. Webster (BRAPP); assay: as above
Source text: as §6
(§8) Treatments consisted of the benzyl ester of 4-amino-3-chloro-5-fluoro-6-(4-chloro-2-fluoro-3-methoxy-phenyl)pyridine-2-carboxylic acid (compound A) formulated as an SC (suspension concentrate) and various herbicidal components alone and in combination. Forms of compound A were applied on an acid equivalent basis.
(§9) Treatment requirements were calculated based upon the rates being tested, the concentration of active ingredient or acid equivalent in the formulation, and a 12 mL application volume at a rate of 187 L/ha.
as §2, with “oil concentrate (COC)” for “oil concentrated”, “(v/v) COC” for “(v/v) crop oil concentrate”, “contained 1.25%” for “contained 1.25+/−0.05%”, “(v/v) COC.” for “(v/v) crop oil concentrate.”
as §7
as §3, with “soil” for “plant material”, “18” for “18 to 20”, “(46” for “(46 to 50”, “pot” for “plant canopy”, “pots” for “plants”
(§10) The treated and control pots were placed in a greenhouse and top watered as needed. When required to ensure good germination and healthy plants, a fungicide treatment and/or other chemical or physical treatment was applied. The pots were maintained in a greenhouse with an approximate 14 hr photoperiod which was maintained at about 29° C. during the day and 26° C. during the night. Nutrients (Peters® Excel 15-5-15 5-Ca 2-Mg) were applied in the irrigation solution as needed and water was added on a regular basis. Supplemental lighting was provided with overhead metal halide 1000-Watt lamps as necessary. After approximately 4 weeks, the condition of the test plants as compared with that of the untreated plants was determined visually and scored on a scale of 0 to 100 percent where 0 corresponds to no injury or growth inhibition and 100 corresponds to complete kill.
(§11) Colby's equation was used to determine the herbicidal effects expected from the mixtures (Colby, S. R. 1967. Calculation of the synergistic and antagonistic response of herbicide combinations. Weeds 15:20-22.). […]

[4] = system: Echinochloa colonum (L.) Link (ECHCO); assay: as above
Source text: as §6, §8, §9
as §2, with “oil concentrate (COC)” for “oil concentrated”, “(v/v) COC” for “(v/v) crop oil concentrate”, “contained 1.25%” for “contained 1.25+/−0.05%”, “(v/v) COC.” for “(v/v) crop oil concentrate.”
as §7
as §3, with “soil” for “plant material”, “18” for “18 to 20”, “(46” for “(46 to 50”, “pot” for “plant canopy”, “pots” for “plants”
as §10, §11

[5] = system: Echinochloa crus-galli (L.) P. Beauv. (ECHCG); assay: as above
Source text: as §6, §8, §9
as §2, with “oil concentrate (COC)” for “oil concentrated”, “(v/v) COC” for “(v/v) crop oil concentrate”, “contained 1.25%” for “contained 1.25+/−0.05%”, “(v/v) COC.” for “(v/v) crop oil concentrate.”
as §7
as §3, with “soil” for “plant material”, “18” for “18 to 20”, “(46” for “(46 to 50”, “pot” for “plant canopy”, “pots” for “plants”
as §10, §11

[6] = system: Sesbania exaltata (Raf.) Cory/Rydb. Ex Hill (SEBEX); assay: as above
Source text: as §6, §8, §9
as §2, with “oil concentrate (COC)” for “oil concentrated”, “(v/v) COC” for “(v/v) crop oil concentrate”, “contained 1.25%” for “contained 1.25+/−0.05%”, “(v/v) COC.” for “(v/v) crop oil concentrate.”
as §7
as §3, with “soil” for “plant material”, “18” for “18 to 20”, “(46” for “(46 to 50”, “pot” for “plant canopy”, “pots” for “plants”
as §10, §11

[7] = system: Setaria faberi Herrm. (SETFA); assay: as above
Source text: as §6, §8, §9
as §2, with “oil concentrate (COC)” for “oil concentrated”, “(v/v) COC” for “(v/v) crop oil concentrate”, “contained 1.25%” for “contained 1.25+/−0.05%”, “(v/v) COC.” for “(v/v) crop oil concentrate.”
as §7
as §3, with “soil” for “plant material”, “18” for “18 to 20”, “(46” for “(46 to 50”, “pot” for “plant canopy”, “pots” for “plants”
as §10, §11

[8] = system: Xanthium strumarium L. (XANST); assay: as above; settings: 27 DAA
Source text: as §6, §8, §9
as §2, with “oil concentrate (COC)” for “oil concentrated”, “(v/v) COC” for “(v/v) crop oil concentrate”, “contained 1.25%” for “contained 1.25+/−0.05%”, “(v/v) COC.” for “(v/v) crop oil concentrate.”
as §7
as §3, with “soil” for “plant material”, “18” for “18 to 20”, “(46” for “(46 to 50”, “pot” for “plant canopy”, “pots” for “plants”
as §10, §11

Question: Which results are given for `C#CC(C)(C)NC(=O)c1cc(Cl)cc(Cl)c1` [Propyzamide]?
Answer: pest or weed control at 70 g/ha ([1]; 528 h, 22 DAA, 70 g ai/ha): 0%; pest or weed control at 140 g/ha ([1]; 528 h, 22 DAA, 140 g ai/ha): 0%; pest or weed control at 280 g/ha ([1]; 528 h, 22 DAA, 280 g ai/ha): 0%; Visual Weed Control (%) - 33 DAA IPOHE Obs [2]: 35%; Visual Weed Control (%) - 33 DAA BRAPP Obs ([3]; Propyzamide 280 g ai/ha alone): 20%; Visual Weed Control (%) - 33 DAA BRAPP Obs ([3]; Propyzamide 560 g ai/ha alone): 37%; Visual Weed Control (%) - 33 DAA ECHCO Obs ([4]; Propyzamide 280 g ai/ha alone): 0%; Visual Weed Control (%) - 33 DAA ECHCO Obs ([4]; Propyzamide 560 g ai/ha alone): 23%; Visual Weed Control (%) - 33 DAA ECHCO Obs ([4]; Propyzamide 1120 g ai/ha alone): 80%; Visual Weed Control (%) - 33 DAA ECHCG Obs ([5]; Propyzamide 560 g ai/ha alone): 35%; Visual Weed Control (%) - 33 DAA ECHCG Obs ([5]; Propyzamide 1120 g ai/ha alone): 53%; Visual Weed Control (%) - 33 DAA SEBEX Obs ([6]; Propyzamide 280 g ai/ha alone): 20%; Visual Weed Control (%) - 33 DAA SEBEX Obs ([6]; Propyzamide 560 g ai/ha alone): 13%; Visual Weed Control (%) - 33 DAA SEBEX Obs ([6]; Propyzamide 1120 g ai/ha alone): 37%; Visual Weed Control (%) - 33 DAA SETFA Obs ([7]; Propyzamide 280 g ai/ha alone): 0%; Visual Weed Control (%) - 33 DAA SETFA Obs ([7]; Propyzamide 560 g ai/ha alone): 68%; Visual Weed Control (%) - 33 DAA SETFA Obs ([7]; Propyzamide 1120 g ai/ha alone): 93%

Question: What does the source list for `COC(=O)c1c(C(F)F)nc(C(F)(F)F)c(C2=NCCS2)c1CC(C)C` [Thiazopyr, methyl 2-(difluoromethyl)-5-(4,5-dihydro-2-thiazolyl)-4-(2-methylpropyl)-6-(trifluoromethyl)-3-pyridinecarboxylate]?
Answer: pest or weed control at 280 g/ha ([1]; 480 h): 40%; Visual Weed Control (%) Obs ([8]; 280 g ai/ha): 15%; Visual Weed Control (%) Obs ([8]; 560 g ai/ha): 10%
